Results on 2 molecules are retold here after PubChem BioAssay (NCI).

Among the test systems are HCT-15 colon; KM12 colon; LOX IMVI melanoma; NCI-H522 lung; BT-549 breast; OVCAR-5 ovarian; SF-268 CNS; ACHN renal; SF-539 CNS; A549 NSCLC.
Common to all, as to experiment: NCI-60 cell line screen, 48 h

Each structure is given as a SMILES string.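 How tested: cells in 96-well plates exposed to compound for 48 hours at five concentrations. TGI marks complete inhibition of growth.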 Where only a bound is given, the exact number is not on record here.

With `Cc1cc(=O)[nH]c2cc(NC(=O)C(C)NC(=O)C(C)NC(=O)C(C)NC(=O)OC(C)(C)C)ccc12` (stereo not given), the TGI in the assay with HCT-15 colon, in the assay with KM12 colon, in the assay on LOX IMVI melanoma, with NCI-H522 lung, in the assay on BT-549 breast and in the assay with OVCAR-5 ovarian was over 15 µM in each case. The TGI with SF-268 CNS, in the assay with ACHN renal, in the assay with SF-539 CNS and with A549 NSCLC was over 15 µM in each case.
In the case of `COc1ccc(-c2c(C#N)c(N)[nH]c(=S)c2C#N)cc1`, the TGI in the assay with HCT-15 colon was over 100 µM; in the assay with KM12 colon it was over 100 µM; with LOX IMVI melanoma, over 100 µM; in the assay on NCI-H522 lung, 63 µM; in the assay on BT-549 breast it was 85.4 µM; in the assay on OVCAR-5 ovarian, over 100 µM. For the same molecule, the TGI with SF-268 CNS, with ACHN renal, in the assay with SF-539 CNS and with A549 NSCLC was over 100 µM each time.
